Measurements: US20260376293A1, “METHODS FOR STUDYING GPR158 PHARMACOLOGY AND IDENTIFICATION OF ITS LIGANDS” (UNIVERSITY OF FLORIDA RESEARCH FOUNDATION, INCORPORATED, priority 2022, published 2026)

Target: T1, GPR158 (Homo sapiens, UniProt Q5T848)
T1 sequence (Q5T848 24-1215): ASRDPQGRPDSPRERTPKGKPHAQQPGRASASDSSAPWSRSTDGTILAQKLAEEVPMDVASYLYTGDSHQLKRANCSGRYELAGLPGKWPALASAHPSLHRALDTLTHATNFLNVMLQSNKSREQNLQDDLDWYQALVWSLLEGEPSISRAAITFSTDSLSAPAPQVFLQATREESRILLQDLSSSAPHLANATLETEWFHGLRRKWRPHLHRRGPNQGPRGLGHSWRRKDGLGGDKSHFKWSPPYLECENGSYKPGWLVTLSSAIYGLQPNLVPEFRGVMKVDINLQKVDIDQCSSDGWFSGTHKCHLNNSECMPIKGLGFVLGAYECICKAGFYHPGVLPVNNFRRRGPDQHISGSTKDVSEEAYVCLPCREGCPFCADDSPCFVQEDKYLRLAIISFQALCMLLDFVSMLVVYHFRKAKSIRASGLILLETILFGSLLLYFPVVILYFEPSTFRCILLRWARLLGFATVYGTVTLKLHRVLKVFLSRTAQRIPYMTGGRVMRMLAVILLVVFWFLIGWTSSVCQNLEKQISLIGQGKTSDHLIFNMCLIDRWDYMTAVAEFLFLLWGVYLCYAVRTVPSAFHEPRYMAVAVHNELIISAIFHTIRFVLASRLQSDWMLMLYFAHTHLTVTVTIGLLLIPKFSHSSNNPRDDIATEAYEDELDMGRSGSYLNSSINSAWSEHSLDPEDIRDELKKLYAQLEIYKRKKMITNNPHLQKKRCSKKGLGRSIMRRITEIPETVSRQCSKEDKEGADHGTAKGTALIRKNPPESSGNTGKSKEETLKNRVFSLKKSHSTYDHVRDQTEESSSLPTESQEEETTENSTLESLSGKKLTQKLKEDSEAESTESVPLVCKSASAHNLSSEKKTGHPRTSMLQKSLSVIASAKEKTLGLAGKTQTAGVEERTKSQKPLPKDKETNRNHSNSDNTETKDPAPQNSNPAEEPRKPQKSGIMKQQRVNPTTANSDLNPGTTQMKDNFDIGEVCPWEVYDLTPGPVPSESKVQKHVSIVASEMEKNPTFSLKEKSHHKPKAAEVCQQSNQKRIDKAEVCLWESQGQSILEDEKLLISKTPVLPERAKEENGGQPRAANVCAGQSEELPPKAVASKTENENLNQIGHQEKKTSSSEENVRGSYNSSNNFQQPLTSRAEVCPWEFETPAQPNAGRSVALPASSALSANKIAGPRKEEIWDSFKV
Assay: Membrane radioligand saturation binding (Scatchard)
Set-up: expressed in transfected cells; host or cells: HEK293FT
Settings: for Kd: Scatchard plot, HEK293 membranes expressing GPR158, n=4
Experimental: FIGS. 9A-9H. Direct interaction of glycine with GPR158 A) Schematics of assay design for detecting glycine binding to GPR158 by flow cytometry. Cells transfected with GPR158 are incubated with FITC-glycine and fluorescence labeling of cells is detected by flow cytometry. B) Representative flow cytometry histogram showing distribution of cellular populations after sorting. C) Quantification of FITC-glycine binding detected in flow cytometry binding experiments. The median of fluorescence (MFI) is quantified and plotted. Error bars are s.e.m. values, N=3, **p<0.01, ****p<0.0001, two-way ANOVA. D) Schematics of the radioligand binding assay. E) Quantification of ^3H-glycine binding to membrane expressing GPR158. Count Per minute (CPM) are measured and plotted. Data shown mean of 4 independent experiments error bars are s.e.m. values, n=4. […] Data shown mean of 4 independent experiments error bars are s.e.m. values, n=4. […] Control (thick line), GPR158 (thin line) I) Quantification of binding determined by fitting the integrated isotherm to an independent binding model.
Next, the inventors performed radioligand binding assays examining binding of [^3H]-labeled glycine to HEK293 cells expressing GPR158 (FIG. 7A). […] The inventors detected saturable [^3H]-glycine binding to membranes containing GPR158 is substantial excess over linear non-specific binding to membranes devoid of GPR158 (FIG. 9E). […]
Membrane binding assay was conducted using HEK293FT cells cultured in 6 well plates at the density of 10^6 per well and transfected with 2 μg of cDNA of GPR158 or empty pcDNA3.1+ for ctrl cells using Metafectene Pro. […] Finally, each filter was incubated in 5 ml of scintillation cocktail (Ecoscint XR, National Diagnostics), homogenized and radioactivity were measured using the liquid scintillation counter Hidex 600SL. The saturation binding curve, Scatchard plots and affinity KD and Bmax constants were calculated using Graphpad Prism 9.0 by fitting a non-linear regression binding saturation curve. […]

| Kd [nM] | binding to membranes containing GPR158 (excess over linear non-specific binding to membranes devoid of GPR158) | Structure (SMILES) |
| --- | --- | --- |
| 2620 ± 1820 | saturable | NCC(=O)O [^3H-glycine, [^3H]-glycine] |
| ~3000 | – | NCC(=O)O [glycine] |
